Columns and labels:
[1] = Stability of folates under the acidic/basic conditions of sample work-up; format: physicochemical
Protocol: (§1) An aliquot of the resulting solution (50 μL) was then analyzed by LC-MRM/MS.
5-FTHF and 10-FTHF undergo dehydration to 5,10-MTHF under acidic conditions in a pH-dependent manner (FIG. 1). In contrast, under neutral or alkaline pH conditions, 5,10-MTHF is converted into 10-FTHF, which then slowly interconverts with 5-FTHF. These different forms of folate are present in RBCs primarily in polyglutamated forms. […] This made it difficult to reliably quantify the individual amounts of 5-FTHF, 10-FTHF, and 5,10-MTHF in the RBCs. Conversion of 5-FTHF and 10-FTHF into 5,10-MTHF proceeded quantitatively at pH 1.5. As a result, it was possible to accurately quantify the pool of folate precursors available for conversion into 5,10-METHF simply by acidifying the RBC extract (FIG. 1). […] They were then acidified to pH 1.5 with 1M HCl ready for analysis of the 5-METHF precursors as 5,10-MTHF (FIG. 1). The [^13C5]-5-FTHF internal standard was quantitatively converted into [^13C5]-5,10-MTHF, which made it possible to accurately quantify the amount of unlabeled 5-FTHF and 10-FTHF, as well as any 5,10-MTHF that had been present in the sample originally. […] However, it is so rapidly utilized in cellular processes by enzymes such as MTHFR, serine hydroxymethyltransferase, and thymidylate synthase (FIG. 6) that it is unlikely to be present in significant quantities.

RBC folate = RBC folate derivatives (LC-MRM/MS) before and after low dose MTX treatment of arthritis patients; format: in vivo, human; conditions: ratio, 24 wk of MTX, Caucasians, 115 pairs
Protocol: Eight calibration standards were prepared in the range 4.5 to 900 nmol/L in 1% ascorbic acid and 10 mM 2-mercaptoethanol (to prevent oxidation). To 500 μL of whole blood (1:10 diluted with 1% ascorbic acid) was added 20 μL of internal standard solution (150 pg/μL each of [^13C5]-FA, [^13C5]-THF, [^13C5]-5-MTHF, and [^13C5]-5-FTHF). For hydrolysis of folylpolyglutamates, 1N sodium hydroxide (6 μL) was added to each tube to adjust the pH to 5.0 and the samples were mixed immediately. In selected experiments, pteroylhepta-γ-L-glutamic acid (5 ng) was added to replicate […] RBC preparations from five different subjects in order to monitor the efficiency of folylpolyglutamate hydrolysis. […]
as §1
RBC folate concentrations were calculated according to the method of Lamers et al.(2006, Am. J. Clin. Nutr. 84(1):156-61): RBC folate={(whole blood folate×100)−[plasma folate×(100−hematocrit)]}/hematocrit.
Serum MCP-1 levels were measured using a human MCP-1 ELISA kit (BD Biosciences) according to the manufacturer's instructions. Total homocysteine (tHcy) and both plasma and red blood cell (RBC) folate derivatives were measured using stable isotope dilution liquid chromatography, multiple reaction monitoring, mass spectrometry (LC/MRM/MS) as described elsewhere herein. […]

plasma folate = experiment: Plasma folates (LC-MRM/MS) before and after low dose MTX treatment of arthritis patients; format: in vivo, human; conditions: 24 wk of MTX, Caucasians, 119 pairs
Protocol: To each plasma sample (300 μL) was added water (200 μL) containing 1% ascorbic acid and 10 mM 2-mercaptoethanol. After the addition of 20 μL internal standard solution (150 pg/μL each of [^13C5]-FA, [^13C5]-THF, [^13C5]-5-MTHF, and [^13C5]-5-FTHF) the samples were thoroughly mixed. Water (1 mL) containing 1% ascorbic acid and 1% methanol was added prior to purification using SPE columns.
The following experiments were designed to assess the phenotypic changes elicited by low dose methotrexate (MTX) treatment. MTX has been widely used as the anti-inflammatory and immunomodulatory agent for the treatment of patients with rheumatoid arthritis and other inflammatory disorders by weekly low-dose (7.5-25 mg).
This indicates a quantitative and qualitative modification of folate phenotype (even though folic acid supplements were prescribed along with the MTX) that results in elevated MCP-1 concentrations (p<0.0001).

SMILES | Stability under both acidic and basic conditions [1] | RBC (5,10MT/5MTH) (mean ± SD) (RBC folate; baseline 0.026 ± 0.095) | RBC(THF/5MTH) (mean ± SD) (RBC folate; baseline 0.118 ± 0.387) | Plasma FA (mean ± SD) (plasma folate; baseline 7.10 ± 26.62, folic acid supplements prescribed along with MTX) | Plasma 5MTH (mean ± SD) (plasma folate; baseline 53.14 ± 31.14)
Nc1nc2c(c(=O)[nH]1)N1CN(c3ccc(C(=O)N[C@@H](CCC(=O)O)C(=O)O)cc3)CC1CN2 (some centres unmarked) [5,10-METHF, 5,10-methylenetetrahydrofolic acid] | extremely unstable | – | – | – | –
CN(Cc1cnc2nc(N)nc(N)c2n1)c1ccc(C(=O)N[C@@H](CCC(=O)O)C(=O)O)cc1 [MTX, methotrexate] | – | 0.051 ± 0.241 | 0.175 ± 0.757 | 36.20 ± 63.60 | 39.90 ± 31.51

Source: patent publication US8541243B2, “Method for assessment of folate phenotypes, disease risk and response to therapy” (The Trustees of the University of Pennsylvania, priority 2008, dated 2013)
